Read-outs that look alike come from different tables or passages of the source.
Tests used:
[1] = target: JAK3 (Cys909) (Homo sapiens, UniProt P52333); test: LC-MS/MS mapping of covalent modification; type: binding; conditions: LC-MS/MS after incubation of JAK3 with compound
Description: […]. Then, trypsin was added at a 1:50 trypsin-to-protein mass ratio for the first digestion overnight and a 1:100 trypsin-to-protein mass ratio for a second 4-h digestion. The digested peptides were dried with a SpeedVac (Thermo) for LC-MS/MS analysis.
Peptides were dissolved in solvent A (0.1% FA in 2% ACN) and directly loaded onto a reversed-phase pre-column (Acclaim PepMap 100, Thermo Scientific). […] The resulting peptides were analysed by Q Exactive^TM Plus hybrid Quadrupole-Orbitrap Mass Spectrometer (ThermoFisher Scientific).
The peptides were subjected to NSI source followed by tandem mass spectrometry (MS/MS) in Q Exactive^TM Plus (Thermo) coupled online to the UPLC. Intact peptides were detected in the Orbitrap at a resolution of 70,000. Peptides were selected for MS/MS using 30% NCE; ion fragments were detected in the Orbitrap at a resolution of 17,500. A data-dependent procedure that alternated between one MS scan followed by […] was applied for the top 20 precursor ions above a threshold ion count of 5000 in the MS survey scan with 5.0 s dynamic exclusion. The electrospray voltage applied was 2.0 kV. Automatic gain control (AGC) was used to prevent overfilling of the ion trap; 5 E4 ions were accumulated for generation of MS/MS spectra. For MS scans, the m/z scan range was 350 to 1800.

[2] = target: T1, Lyn (Homo sapiens, UniProt P07948); test: Eurofins Kinase Profiler panel; type: biochemical; conditions: read-out: % inhibition (1μM), DMSO control=100%, lower=stronger
T1 construct: purchased Eurofins KinaseProfiler (Eurofins Pharma Discovery Services UK, Dundee); JAK3 also ChemPartner
T1 sequence (P07948 whole entry): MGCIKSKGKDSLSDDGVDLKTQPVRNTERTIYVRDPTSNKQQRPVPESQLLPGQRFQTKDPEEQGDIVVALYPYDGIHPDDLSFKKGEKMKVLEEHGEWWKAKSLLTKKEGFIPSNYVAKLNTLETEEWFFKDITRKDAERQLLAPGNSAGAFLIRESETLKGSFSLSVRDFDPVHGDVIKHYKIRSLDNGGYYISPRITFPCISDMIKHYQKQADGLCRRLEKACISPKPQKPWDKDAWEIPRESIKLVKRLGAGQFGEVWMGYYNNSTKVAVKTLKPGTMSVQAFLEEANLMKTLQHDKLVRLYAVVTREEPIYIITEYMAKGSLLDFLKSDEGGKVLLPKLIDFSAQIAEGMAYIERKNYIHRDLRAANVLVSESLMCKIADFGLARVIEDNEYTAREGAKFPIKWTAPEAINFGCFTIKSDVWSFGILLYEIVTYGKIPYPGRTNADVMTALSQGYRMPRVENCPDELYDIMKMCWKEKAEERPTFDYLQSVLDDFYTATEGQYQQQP

[3] = target: T2, MAPK1 (Homo sapiens, UniProt P27361); test: Eurofins Kinase Profiler panel; type: biochemical; conditions: read-out: % inhibition (1μM), DMSO control=100%, lower=stronger
T2 construct: purchased Eurofins KinaseProfiler (Eurofins Pharma Discovery Services UK, Dundee); JAK3 also ChemPartner
T2 sequence (P27361 whole entry): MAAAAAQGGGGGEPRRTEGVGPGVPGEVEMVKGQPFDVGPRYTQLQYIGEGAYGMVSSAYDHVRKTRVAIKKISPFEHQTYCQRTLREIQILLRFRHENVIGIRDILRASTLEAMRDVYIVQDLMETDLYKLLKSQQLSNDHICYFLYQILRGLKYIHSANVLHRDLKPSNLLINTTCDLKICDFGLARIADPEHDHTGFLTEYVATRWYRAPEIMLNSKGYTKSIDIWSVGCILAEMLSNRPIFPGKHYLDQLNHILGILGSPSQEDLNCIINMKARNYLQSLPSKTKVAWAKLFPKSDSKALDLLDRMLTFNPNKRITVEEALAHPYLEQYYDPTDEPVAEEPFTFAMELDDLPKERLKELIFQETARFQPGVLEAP

[4] = test system: GM-CSF-induced STAT5 phosphorylation (JAK2); test: GM-CSF-induced pSTAT5 in total lymphocytes in hPBMCs, flow cytometry; type: cell-based; conditions: Homo sapiens, Lymphocyte, hPBMC total lymphocytes, trigger GM-CSF, readout pSTAT5
[5] = target: T3, Fms (Homo sapiens, UniProt P07333); test: Eurofins Kinase Profiler panel; type: biochemical; conditions: read-out: % inhibition (1μM), DMSO control=100%, lower=stronger
T3 construct: purchased Eurofins Pharma Discovery Services UK Limited (Kinase Profiler screening platform)
T3 sequence (P07333 20-972): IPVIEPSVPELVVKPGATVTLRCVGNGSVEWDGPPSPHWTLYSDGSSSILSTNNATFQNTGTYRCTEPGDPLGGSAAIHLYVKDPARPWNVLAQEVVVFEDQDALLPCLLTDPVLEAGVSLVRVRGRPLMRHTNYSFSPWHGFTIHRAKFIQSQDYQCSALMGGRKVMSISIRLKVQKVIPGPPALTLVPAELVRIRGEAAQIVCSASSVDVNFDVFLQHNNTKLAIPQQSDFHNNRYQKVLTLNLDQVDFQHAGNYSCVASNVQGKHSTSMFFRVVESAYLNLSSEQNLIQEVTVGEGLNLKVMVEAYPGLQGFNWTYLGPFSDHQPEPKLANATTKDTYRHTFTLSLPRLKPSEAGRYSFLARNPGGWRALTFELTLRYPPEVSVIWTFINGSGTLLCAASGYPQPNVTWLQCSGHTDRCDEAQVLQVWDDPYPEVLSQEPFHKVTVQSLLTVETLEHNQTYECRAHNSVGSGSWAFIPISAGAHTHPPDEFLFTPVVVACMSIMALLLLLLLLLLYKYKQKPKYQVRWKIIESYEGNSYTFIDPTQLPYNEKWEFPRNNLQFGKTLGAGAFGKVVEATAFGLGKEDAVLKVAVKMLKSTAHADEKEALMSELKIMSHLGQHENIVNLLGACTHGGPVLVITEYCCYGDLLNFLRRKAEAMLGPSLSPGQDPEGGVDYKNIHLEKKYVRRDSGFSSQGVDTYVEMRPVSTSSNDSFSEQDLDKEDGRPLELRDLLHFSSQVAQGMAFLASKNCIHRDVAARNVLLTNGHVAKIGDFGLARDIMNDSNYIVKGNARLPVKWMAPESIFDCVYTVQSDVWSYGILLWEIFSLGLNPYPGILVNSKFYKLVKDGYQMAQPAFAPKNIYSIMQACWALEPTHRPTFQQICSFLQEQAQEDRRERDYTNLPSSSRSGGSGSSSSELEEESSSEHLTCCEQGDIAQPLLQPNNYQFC

[6] = test system: cytokine gene transcription in joint tissue of CIA mice; test: Cytokine gene expression in joints of CIA mice by RT-PCR; type: in vivo, mouse
[7] = target: T4, MKK7β (Homo sapiens, UniProt O14733); test: Eurofins Kinase Profiler panel; type: biochemical
T4 construct: Eurofins Pharma Discovery Services UK Limited (Kinase Profiler service)
T4 sequence (O14733 whole entry): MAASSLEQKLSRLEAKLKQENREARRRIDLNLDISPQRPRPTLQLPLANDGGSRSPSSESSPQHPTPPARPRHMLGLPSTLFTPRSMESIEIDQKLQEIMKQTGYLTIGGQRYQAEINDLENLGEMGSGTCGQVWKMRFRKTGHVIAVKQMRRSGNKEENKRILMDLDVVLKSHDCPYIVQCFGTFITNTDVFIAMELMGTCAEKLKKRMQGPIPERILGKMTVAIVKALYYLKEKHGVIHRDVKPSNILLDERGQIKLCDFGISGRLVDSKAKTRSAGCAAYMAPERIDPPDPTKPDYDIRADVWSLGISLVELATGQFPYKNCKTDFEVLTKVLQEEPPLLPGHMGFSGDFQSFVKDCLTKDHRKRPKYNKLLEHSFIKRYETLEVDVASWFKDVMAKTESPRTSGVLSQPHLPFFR

[8] = target: T5, CDK2 (Homo sapiens, UniProt P24941); test: Eurofins Kinase Profiler panel; type: biochemical; conditions: read-out: % inhibition (1μM), DMSO control=100%, lower=stronger
T5 construct: purchased Eurofins KinaseProfiler (Eurofins Pharma Discovery Services UK, Dundee); JAK3 also ChemPartner

[9] = test system: IFN-α2b-induced JAK/STAT1 phosphorylation in U2OS cells (JAK1); test: STAT1 phosphorylation induced by IFN-α2b in U2OS cells, Western blot
[10] = target: T6, Abl (Homo sapiens, UniProt P00519); test: Eurofins Kinase Profiler panel; type: biochemical; conditions: read-out: % inhibition (1μM), DMSO control=100%, lower=stronger
T6 construct: purchased Eurofins KinaseProfiler (Eurofins Pharma Discovery Services UK, Dundee); JAK3 also ChemPartner
T6 sequence (P00519 whole entry): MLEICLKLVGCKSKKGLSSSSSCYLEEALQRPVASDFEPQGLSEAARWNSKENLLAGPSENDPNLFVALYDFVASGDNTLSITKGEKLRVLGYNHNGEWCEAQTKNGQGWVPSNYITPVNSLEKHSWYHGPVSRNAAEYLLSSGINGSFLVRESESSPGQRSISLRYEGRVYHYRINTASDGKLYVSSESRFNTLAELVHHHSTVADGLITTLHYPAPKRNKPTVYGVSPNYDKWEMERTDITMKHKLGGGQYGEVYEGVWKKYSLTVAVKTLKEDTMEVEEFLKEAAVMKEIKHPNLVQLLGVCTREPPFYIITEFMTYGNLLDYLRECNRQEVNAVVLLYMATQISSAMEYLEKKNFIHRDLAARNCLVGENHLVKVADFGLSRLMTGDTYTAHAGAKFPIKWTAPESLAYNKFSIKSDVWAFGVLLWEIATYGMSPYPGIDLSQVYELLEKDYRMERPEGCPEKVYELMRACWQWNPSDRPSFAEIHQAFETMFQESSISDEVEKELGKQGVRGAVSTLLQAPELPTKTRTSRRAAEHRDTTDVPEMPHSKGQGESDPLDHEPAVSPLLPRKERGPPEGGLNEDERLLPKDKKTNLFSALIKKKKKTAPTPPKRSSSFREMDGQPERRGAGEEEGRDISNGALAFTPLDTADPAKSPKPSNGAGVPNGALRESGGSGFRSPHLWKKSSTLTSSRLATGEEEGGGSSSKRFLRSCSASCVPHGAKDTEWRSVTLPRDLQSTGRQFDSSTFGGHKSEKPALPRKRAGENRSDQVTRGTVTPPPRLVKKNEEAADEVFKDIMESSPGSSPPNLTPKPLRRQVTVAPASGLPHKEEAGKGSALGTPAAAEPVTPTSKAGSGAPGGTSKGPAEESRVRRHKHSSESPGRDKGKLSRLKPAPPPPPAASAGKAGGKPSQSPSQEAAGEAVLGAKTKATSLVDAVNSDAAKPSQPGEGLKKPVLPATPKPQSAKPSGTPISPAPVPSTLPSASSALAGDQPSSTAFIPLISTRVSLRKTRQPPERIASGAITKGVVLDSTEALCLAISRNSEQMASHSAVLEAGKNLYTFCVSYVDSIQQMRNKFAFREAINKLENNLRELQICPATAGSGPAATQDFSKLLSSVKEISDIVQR

[11] = target: T7, JAK3 (Homo sapiens, UniProt P52333); test: Eurofins Kinase Profiler panel; type: biochemical; conditions: read-out: % inhibition (1μM), DMSO control=100%, lower=stronger, text: residual kinase activity
T7 construct: ChemPartner (contract assay service)
T7 sequence (P52333 1-1124): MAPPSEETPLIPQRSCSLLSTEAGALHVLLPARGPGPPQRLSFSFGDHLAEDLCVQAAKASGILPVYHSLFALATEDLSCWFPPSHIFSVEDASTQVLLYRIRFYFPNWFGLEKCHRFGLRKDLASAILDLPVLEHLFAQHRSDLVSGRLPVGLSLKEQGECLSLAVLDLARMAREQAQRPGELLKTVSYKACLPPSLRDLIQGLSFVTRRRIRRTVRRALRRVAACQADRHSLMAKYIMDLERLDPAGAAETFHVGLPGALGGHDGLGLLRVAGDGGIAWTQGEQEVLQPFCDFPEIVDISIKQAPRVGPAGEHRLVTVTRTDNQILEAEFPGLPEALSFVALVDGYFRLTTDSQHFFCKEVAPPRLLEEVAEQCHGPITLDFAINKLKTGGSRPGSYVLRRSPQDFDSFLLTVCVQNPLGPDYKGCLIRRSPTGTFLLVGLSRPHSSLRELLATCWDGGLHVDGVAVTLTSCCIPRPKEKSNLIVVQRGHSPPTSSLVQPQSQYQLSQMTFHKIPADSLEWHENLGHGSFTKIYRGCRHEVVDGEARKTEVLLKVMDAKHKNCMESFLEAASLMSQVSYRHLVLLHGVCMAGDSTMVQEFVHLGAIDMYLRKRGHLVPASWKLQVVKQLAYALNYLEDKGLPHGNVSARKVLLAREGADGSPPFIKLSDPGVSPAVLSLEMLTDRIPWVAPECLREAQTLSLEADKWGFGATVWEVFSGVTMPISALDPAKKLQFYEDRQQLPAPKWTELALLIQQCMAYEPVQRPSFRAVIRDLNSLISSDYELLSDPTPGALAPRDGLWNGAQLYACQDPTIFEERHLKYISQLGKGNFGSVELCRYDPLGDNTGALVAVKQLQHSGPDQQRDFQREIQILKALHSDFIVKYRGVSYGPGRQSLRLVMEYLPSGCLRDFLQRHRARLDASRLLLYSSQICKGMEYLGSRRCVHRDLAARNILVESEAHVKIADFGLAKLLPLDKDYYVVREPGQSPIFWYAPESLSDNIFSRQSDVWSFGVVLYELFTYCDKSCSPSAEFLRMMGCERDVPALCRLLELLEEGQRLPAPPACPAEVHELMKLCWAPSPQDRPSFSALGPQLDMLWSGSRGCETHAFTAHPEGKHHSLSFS

[12] = target: T8, FGFR1 (Homo sapiens, UniProt P11362); test: Eurofins Kinase Profiler panel; type: biochemical; conditions: read-out: % inhibition (1μM), DMSO control=100%, lower=stronger
T8 construct: purchased Eurofins Pharma Discovery Services UK Limited (Kinase Profiler screening platform)
T8 sequence (P11362 22-822): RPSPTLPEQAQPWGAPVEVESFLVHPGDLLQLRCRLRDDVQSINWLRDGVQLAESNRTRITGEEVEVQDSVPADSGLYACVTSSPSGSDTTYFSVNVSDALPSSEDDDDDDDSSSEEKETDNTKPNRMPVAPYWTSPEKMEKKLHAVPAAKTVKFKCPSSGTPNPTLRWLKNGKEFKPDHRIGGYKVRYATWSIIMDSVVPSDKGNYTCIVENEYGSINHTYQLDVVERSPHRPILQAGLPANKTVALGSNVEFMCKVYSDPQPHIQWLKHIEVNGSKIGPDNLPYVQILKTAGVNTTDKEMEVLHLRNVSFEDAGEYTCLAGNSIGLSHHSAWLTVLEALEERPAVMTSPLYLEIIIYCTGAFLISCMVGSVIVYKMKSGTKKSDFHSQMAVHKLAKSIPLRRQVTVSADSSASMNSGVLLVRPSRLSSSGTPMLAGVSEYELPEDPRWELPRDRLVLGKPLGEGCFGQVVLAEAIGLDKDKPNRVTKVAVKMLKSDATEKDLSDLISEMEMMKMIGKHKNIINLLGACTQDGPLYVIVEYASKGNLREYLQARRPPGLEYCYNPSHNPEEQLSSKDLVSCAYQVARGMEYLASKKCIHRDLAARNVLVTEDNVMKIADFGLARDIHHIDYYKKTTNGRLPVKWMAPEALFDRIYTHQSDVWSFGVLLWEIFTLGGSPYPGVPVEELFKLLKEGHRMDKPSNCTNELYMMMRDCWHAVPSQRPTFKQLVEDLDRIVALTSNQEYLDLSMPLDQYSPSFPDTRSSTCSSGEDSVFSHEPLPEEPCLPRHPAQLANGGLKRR

[13] = test system: G-CSF-induced JAK/STAT3 phosphorylation in HEL cells (JAK1/JAK2); test: STAT3 phosphorylation induced by G-CSF in HEL cells, Western blot; conditions: for IC50: Homo sapiens
[14] = target: T9, Aurora-A (Homo sapiens, UniProt O14965); test: Eurofins Kinase Profiler panel; type: biochemical
T9 construct: Eurofins Pharma Discovery Services UK Limited (Kinase Profiler service)
T9 sequence (O14965 whole entry): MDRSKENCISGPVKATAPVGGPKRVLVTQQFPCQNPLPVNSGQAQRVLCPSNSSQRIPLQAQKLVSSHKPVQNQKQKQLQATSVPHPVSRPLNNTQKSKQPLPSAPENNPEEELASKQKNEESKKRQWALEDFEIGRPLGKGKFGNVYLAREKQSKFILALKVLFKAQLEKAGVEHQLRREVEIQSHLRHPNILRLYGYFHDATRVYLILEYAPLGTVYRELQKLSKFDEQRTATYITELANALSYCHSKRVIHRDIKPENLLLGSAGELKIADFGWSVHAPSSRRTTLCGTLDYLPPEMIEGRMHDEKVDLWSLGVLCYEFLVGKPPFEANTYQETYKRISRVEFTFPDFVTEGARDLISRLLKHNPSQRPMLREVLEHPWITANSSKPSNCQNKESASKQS

[15] = read-out: % inhibition (1μM), 1 µM, DMSO control=100%, lower=stronger

In the case of C=CC(=O)N[C@@H]1CCCN(c2ncnc3[nH]ccc23)C1 [RB1], the “covalent modification of JAK3 (Cys909-containing peptide)” value [1] is reported as “covalently modify JAK3 in an apparently irreversible manner”, the activity at 1 µM [2] is reported as 118% and the activity at 1 µM [3] is reported as 85%. For the same compound, the IC50 [4] was greater than 10 µM, the activity at 1 µM [5] was 90% and the IL-10 expression [6] was “significantly increased its expression”. For the same compound, the “gene transcription levels of IL-1, IL-2 and IL-6” value [6] was “dose-dependently reduced”, the “TNF-α and IFN-γ gene transcription levels” value ([6]; p < 0.01) was “significantly reduced” and the IC50 ([7]; estimated) was greater than 0.8 µM. It also gave an activity at 1 µM [7, 15] of 20%, an activity at 1 µM [8] of 93% and an IC50 ([9]; Homo sapiens, read-out: IC50, STAT and JAK phosphorylation) greater than 50 µM. For the same compound, the “Selectivity JAK1/JAK3” value ([9]; IFN-α2B, pSTAT1) was greater than 1000, the activity at 1 µM [10] was 112% and the activity at 1 µM [11] was 0.9%. The activity at 1 µM [12] was 80%, the “G-CSF-induced phosphorylation of STAT3” value ([13]; HEL cells, RB1 at concentrations over 50 μM) was “not affected” and the “Selectivity JAK1/JAK3” value ([13]; HEL, G-CSF, pSTAT3) was greater than 1000. For the same compound, the “Selectivity JAK2/JAK3” value ([13]; HEL, G-CSF, pSTAT3) was greater than 1000, the IC50 ([13]; HEL, read-out: IC50 (nM) JAK1) was greater than 50000 nM and the IC50 ([13]; HEL, read-out: IC50 (nM) JAK2) was greater than 50000 nM. For the same compound, the IC50 ([14]; estimated) was greater than 0.8 µM and the activity at 1 µM [14, 15] was 21%.

Reference: publication PMC5869712 (Scientific Reports, 2018)
